# Columns and labels:
# [1] = in vivo; details: mouse, in vivo, po
# Procedure: (§1) Tests were carried out on mice of both sexes, of the Swiss strain, of average weight 20 g. (± 2g.).
# [2] = system: pain induced, in Swiss mice, by the intraperitoneal injection of phenylquinone; assay: Siegmund test (analgesic effect against pain induced by intraperitoneal phenylquinone); format: in vivo; details: mice; for ED50: Mus musculus, read-out: Siegmund test AD50 (50% active dose); for analgesic effects of the peripheral type (Siegmund test), compared with amidopyrine and glafenine: oral, versus amidopyrine and glafenine
# Source text: 1. Effect against pain induced, in Swiss mice, by the intraperitoneal injection of phenylquinone, in accordance with the experimental procedure of Siegmund (Proc. Soc. Exp. Biol. Med., 1957, 95, 729), modified by Cheymol (C.R. Soc. Biol., 1963, 157, 521) and Brittain (Nature, London, 1963, […], 895).
# [3] = system: carragenine-induced oedema of the paw, Sherman rats; assay: Carragenine-induced oedema test (oedema of the paw); format: in vivo; details: Rattus norvegicus; rats, oral administration; read-out: Carragenine-induced oedema test AD (AD40 = 40% active dose)
# [4] = system: mice of both sexes, of the Swiss strain; assay: in vivo; details: mice, oral administration
# Procedure: as §1
# [5] = system: heated plate test, Swiss mice; assay: Heated plate test (plate heated by acetone vapours; analgesic effects of the central type); details: oral, versus amidopyrine
Compound,"LD50 ([1]; Acute toxicity LD50 (50% lethal dose), mice, oral administration)",ED50 ([2]; oral administration),ED40 [3],LD50 [1],"analgesic effects of the peripheral type (Siegmund test), compared with amidopyrine and glafenine [2]",Acute toxicity LD50 (50% lethal dose) [4],"analgesic effects of the central type (heated plate test), compared with amidopyrine [5]",extent of the greater activity than amidopyrine in the heated plate test [5],Siegmund test AD50 (50% active dose) ([2]; oral administration)
"Cc1c(N(C)C)c(=O)n(-c2ccccc2)n1C [Amidopyrine, reference compound]",850 mg/kg,50 mg/kg,80 mg/kg,,,,,,
"O=C(OCCN1CCN(c2ccc(Cl)cc2)CC1)c1ccccc1Nc1ccnc2cc(Cl)ccc12 [Compound 72-165, 2-(4'-p-Chlorophenyl-piperazino)-ethyl 2-(7'-chloro-4' quinolyl-amino)-benzoate]",,50 mg/kg,,> 2000 mg/kg,,,,,
"O=C(OCCN1CCN(c2ccccc2)CC1)c1ccccc1Nc1ccnc2cc(C(F)(F)F)ccc12 [Compound 72-242, 2-(4'-Phenyl-piperazino)-ethyl 2-(7'-trifluoro-methyl-4'quinolyl-amino)-benzoate]",,25 mg/kg,40 mg/kg,> 3000 mg/kg,generally much more active,,,,
"O=C(OCCN1CCN(c2ccccc2)CC1)c1ccccc1Nc1ccnc2cc(SC(F)(F)F)ccc12 [Compound 72-244, 2-(4'-Phenyl-piperazino)-ethyl 2-(7'-trifluoromethylthio-4'-quinolyl-amino)-benzoate]",,10 mg/kg,,,generally much more active,"1,200 mg/kg",,,
"Cc1cccc(N2CCN(CCOC(=O)c3ccccc3Nc3ccnc4cc(Cl)ccc34)CC2)c1C [Compound 72-248, 2-[4'-(2"",3""-Dimethyl-phenyl)-piperazino]-ethyl 2-(7'-chloro-4'-quinolyl-amino)-benzoate]",,20 mg/kg,120 mg/kg,1900 mg/kg,generally much more active,,,,
"O=C(OCCN1CCN(c2cccc(C(F)(F)F)c2)CC1)c1ccccc1Nc1ccnc2cc(Cl)ccc12 [Compound 72-391, 2-(4'-m-Trifluoromethylphenyl-piperazino)-ethyl 2-(7'-chloro-4'-quinolyl-amino)-benzoate]",,20 mg/kg,40 mg/kg,,generally much more active,"2,500 mg/kg",greater than that of amidopyrine,,
"O=C(OCCN1CCN(c2cccc(Cl)c2)CC1)c1ccccc1Nc1ccnc2cc(Cl)ccc12 [Compound 73-018, 2-(4'-m-Chlorophenyl-piperazino)-ethyl 2-(7'-chloro-4'-quinolyl-amino)-benzoate]",,6 mg/kg,120 mg/kg,4000 mg/kg,generally much more active,,greater than that of amidopyrine,considerable,
"O=C(OCCN1CCN(c2cccc(OC(F)(F)F)c2)CC1)c1ccccc1Nc1ccnc2cc(Cl)ccc12 [Compound 73-030, 2-(4'-m-Trifluoromethoxyphenyl-piperazino)-ethyl 2-(7'-chloro-4'-quinolyl-amino)-benzoate]",,100 mg/kg,50 mg/kg,> 4000 mg/kg,,,,,
"O=C(OCCN1CCN(c2cccc(SC(F)(F)F)c2)CC1)c1ccccc1Nc1ccnc2cc(Cl)ccc12 [Compound 73-031, 2-(4'-m-Trifluoromethylthiophenyl-piperazino)-ethyl 2-(7'-chloro-4'-quinolyl-amino)-benzoate]",,100 mg/kg,30 mg/kg,3000 mg/kg,,,,,
"O=C(OCCN1CCN(c2cccc(C(F)(F)F)c2)CC1)c1ccccc1Nc1ccnc2cc(C(F)(F)F)ccc12 [Compound 73-033, 2-(4'-m-Trifluoromethylphenyl-piperazino)-ethyl 2-(7'-trifluoromethyl-4'-quinolyl-amino)-benzoate]",,,,,,"4,000 mg/kg",,,5 mg/kg
"O=C(OCCN1CCN(c2cccc(Cl)c2)CC1)c1ccccc1Nc1ccnc2cc(C(F)(F)F)ccc12 [Compound 73-045, 2-(4'-m-Chlorophenyl-piperazino)-ethyl 2-(7'-trifluromethyl-4'-quinolyl-amino)-benzoate]",,8 mg/kg,30 mg/kg,> 4000 mg/kg,generally much more active,,greater than that of amidopyrine,,
"Cc1c(Cl)cccc1N1CCN(CCOC(=O)c2ccccc2Nc2ccnc3cc(Cl)ccc23)CC1 [Compound 73-046, 2-[4'-(3""-Chloro-2""-methyl-phenyl)-piperazino]-ethyl 2-(7'-chloro-4'-quinolyl-amino)-benzoate]",,13 mg/kg,30 mg/kg,> 2000 mg/kg,generally much more active,,,,
"Cc1c(Cl)cccc1N1CCN(CCOC(=O)c2ccccc2Nc2ccnc3cc(C(F)(F)F)ccc23)CC1 [Compound 73-047, 2-[4'-(3""-Chloro-2""-methyl-phenyl)-piperazino]-ethyl 2-(7'-trifluoromethyl-4'-quinolyl-amino)-benzoate]",,16 mg/kg,65 mg/kg,3000 mg/kg,generally much more active,,,,
"O=C(OCCN1CCN(c2cccc(SC(F)(F)F)c2)CC1)c1ccccc1Nc1ccnc2cc(C(F)(F)F)ccc12 [Compound 73-048, 2-(4'-m-Trifluoromethylthiophenyl-piperazino)-ethyl 2-(7'-trifluoromethyl-4'-quinolyl-amino)-benzoate]",,6 mg/kg,30 mg/kg,4000 mg/kg,generally much more active,,,,
"O=C(OCCN1CCN(c2cccc(OC(F)(F)F)c2)CC1)c1ccccc1Nc1ccnc2cc(C(F)(F)F)ccc12 [Compound 73-051, 2-(4'-m-trifluoromethoxyphenyl-piperazino)-ethyl 2-(7'-trifluoromethyl-4'-quinolyl-amino)-benzoate]",,16 mg/kg,50 mg/kg,> 4000 mg/kg,generally much more active,,,,
"O=C(OCCN1CCN(c2cccc(SC(F)(F)F)c2)CC1)c1ccccc1Nc1ccnc2cc(SC(F)(F)F)ccc12 [Compound 73-069, 2-(4'-m-Trifluoromethylthiophenyl-piperazino)-ethyl 2-(7'-trifluoromethylthio-4'-quinolyl-amino)-benzoate]",,50 mg/kg,55 mg/kg,,,"2,200 mg/kg",,,
"O=C(OCCN1CCN(c2cc(C(F)(F)F)cc(C(F)(F)F)c2)CC1)c1ccccc1Nc1ccnc2cc(C(F)(F)F)ccc12 [Compound 73-070, 2-[4'-(3"",5""-Di-trifluoromethyl-phenyl)-piperazino]-ethyl 2-(7'-trifluoromethyl-4'-quinolyl-amino)-benzoate]",,16 mg/kg,> 80 mg/kg,> 4000 mg/kg,,,,,
"CCCCC1C(=O)N(c2ccccc2)N(c2ccccc2)C1=O [Phenylbutazone, reference compound]",,90 mg/kg,30 mg/kg,,,,,,
"O=C(OCCN1CCN(c2cccc(C(F)(F)F)c2)CC1)c1ccccc1Nc1ccnc2c(C(F)(F)F)cccc12 [SLB 179, 2-(4'-m-Trifluoromethylphenyl-piperazino)-ethyl 2-(8'-trifluoromethyl-4'-quinolyl-amino)-benzoate]",,25 mg/kg,120 mg/kg,> 3000 mg/kg,generally much more active,,greater than that of amidopyrine,,
"O=C(OCCN1CCN(c2cccc(Cl)c2)CC1)c1ccccc1Nc1ccnc2c(C(F)(F)F)cccc12 [SLB 180, 2-(4'-m-Chlorophenyl-piperazino)-ethyl 2-(8'-trifluoromethyl-4'-quinolyl-amino)-benzoate]",,12 mg/kg,> 100 mg/kg,> 3000 mg/kg,generally much more active,,,,
"O=C(OCCN1CCN(c2ccccc2)CC1)c1ccccc1Nc1ccnc2c(C(F)(F)F)cccc12 [SLB 181, 2-(4'-Phenyl-piperazino)-ethyl 2-(8'-trifluoromethyl-4'-quinolyl-amino)-benzoate]",,12 mg/kg,45 mg/kg,2000 mg/kg,generally much more active,,,,
"O=C(OCCN1CCN(c2cccc(SC(F)(F)F)c2)CC1)c1ccccc1Nc1ccnc2c(C(F)(F)F)cccc12 [SLB 182, 2-(4'-m-Trifluoromethylthiophenyl-piperazino)-ethyl 2-(8'-trifluoromethyl-4'-quinolyl-amino)-benzoate]",,5 mg/kg,150 mg/kg,> 3000 mg/kg,generally much more active,,,,

# Source: patent US3935229A, “Esters of 2-[(4-quinolyl)amino]-benzoic acids” (Synthelabo, priority 1973, dated 1976)
